Reference: patent publication US20230257761A1, “HERBICIDE RESISTANT PLANT” (INSTITUTE OF GENETICS AND DEVELOPMENTAL BIOLOGY, CHINESE …, priority 2019, published 2023)

Key:
Format in all cases: in vivo
[1] = test system: rice cultivar Zhonghua 11; assay: Spraying of stems and leaves of regenerated T0 rice plants with Haloxyfop-P
Description: According to the growth state of the regenerated plants, the T0 generation plants regenerated on the medium were placed in water for 5 to 30 days, and then the plant stems and leaves were directly sprayed with Haloxyfop-P, and the spray concentration range is between 0.1 and 2 times of the recommended concentration of commercial preparations. Four weeks after spraying, a total of 5 surviving mutants, ie, herbicide-resistant mutants, were obtained (FIG. 3).

[2] = test system: rice tissue culture seedlings; assay: Spraying of rice tissue culture seedlings with HPPD herbicide; conditions: about two weeks after spraying, ⅛ of the field concentration; for leaves and growth of overexpressing positive rice seedlings: rice overexpressing HPPD protein; for leaves of wild-type rice tissue culture seedlings: wild-type rice without resistance
Protocol: The rice tissue culture seedlings overexpressing HPPD protein were used as the positive control, and the wild-type rice plants of the same stage and variety were used as the negative control. Each group of 8 plants was sprayed with different concentration gradients of herbicide: mesotrione or Topramezone. […] The herbicide concentration, that is, ⅛ of the field concentration of mesotrione or Topramezone, is a suitable screening concentration. The rice plants obtained in Example 2 were treated at this screening concentration to obtain herbicide-resistant plants

[3] = test system: wheat (Triticum aestivum L.); assay: Herbicide screening: imazapic added to wheat rooting medium
Protocol: The existing imazapic-resistant wheat plants were used as positive control, and wild-type wheat was used as negative control. Different concentrations of imazapic were added to the wheat rooting medium, and an appropriate screening concentration was found, that is, 1/15 of the concentration of imazapic used in the field.

| Structure (SMILES) | leaves and growth of overexpressing positive rice seedlings [2] | leaves of wild-type rice tissue culture seedlings [2] | also measured |
| --- | --- | --- | --- |
| C[C@@H](Oc1ccc(Oc2ncc(C(F)(F)F)cc2Cl)cc1)C(=O)O [Haloxyfop-P] |  |  | number of surviving (herbicide-resistant) mutants ([1]; base-edited T0 plants, four weeks after spraying, 0.1 to 2 times the recommended concentration of commercial preparations): 5; state of heart leaves of wild-type rice after spraying ([1]; wild-type Zhonghua No. 11 (WT), FIG. 3): dry and dead |
| Cc1c(C(=O)c2cnn(C)c2O)ccc(S(C)(=O)=O)c1C1=NOCC1 [Topramezone] | normal and grew normally | turned white and then withered slowly |  |
| Cc1cnc(C2=NC(=O)C(C)(C(C)C)N2)c(C(=O)O)c1 (centres unmarked) [imazapic] |  |  | rooting of positive control wheat ([3]; existing imazapic-resistant (overexpression-positive) wheat, rooting medium with 1/15 of the field concentration of imazapic): grow roots normally; rooting of wild-type wheat ([3]; wild-type wheat (negative control), rooting medium with 1/15 of the concentration of imazapic used in the field): significantly inhibited |
| CS(=O)(=O)c1ccc(C(=O)C2C(=O)CCCC2=O)c([N+](=O)[O-])c1 [mesotrione] | normal and grew normally | turned white and then withered slowly |  |
